The record followed here is article PMC13187428, “Mechanistic basis for selective Csm6-2 activation by cyclic penta-adenylate in a type III CRISPR-Cas system” (The EMBO Journal, 2026).

Where two headings read alike, the source gives them in different places.

The Kd is the free concentration of one partner at which half of the binding sites on the other are occupied at equilibrium, for simple one-to-one binding. As usually defined, the stoichiometry N is the number of molecules, sites or subunits per partner or assembly.

In one test the target is T1, Csm6-2 (ApCsm6-2) (Actinomyces procaprae, UniProt Z9IBH4OPS2).
T1 construct: full length, tandem CARF1-HEPN1 (1-400) and CARF2-HEPN2 (401-797); N-terminal His6 tag, pET-28a, E. coli Rosetta (DE3), codon-optimised; homotetramer
T1 sequence (Z9IBH4OPS2 1-797): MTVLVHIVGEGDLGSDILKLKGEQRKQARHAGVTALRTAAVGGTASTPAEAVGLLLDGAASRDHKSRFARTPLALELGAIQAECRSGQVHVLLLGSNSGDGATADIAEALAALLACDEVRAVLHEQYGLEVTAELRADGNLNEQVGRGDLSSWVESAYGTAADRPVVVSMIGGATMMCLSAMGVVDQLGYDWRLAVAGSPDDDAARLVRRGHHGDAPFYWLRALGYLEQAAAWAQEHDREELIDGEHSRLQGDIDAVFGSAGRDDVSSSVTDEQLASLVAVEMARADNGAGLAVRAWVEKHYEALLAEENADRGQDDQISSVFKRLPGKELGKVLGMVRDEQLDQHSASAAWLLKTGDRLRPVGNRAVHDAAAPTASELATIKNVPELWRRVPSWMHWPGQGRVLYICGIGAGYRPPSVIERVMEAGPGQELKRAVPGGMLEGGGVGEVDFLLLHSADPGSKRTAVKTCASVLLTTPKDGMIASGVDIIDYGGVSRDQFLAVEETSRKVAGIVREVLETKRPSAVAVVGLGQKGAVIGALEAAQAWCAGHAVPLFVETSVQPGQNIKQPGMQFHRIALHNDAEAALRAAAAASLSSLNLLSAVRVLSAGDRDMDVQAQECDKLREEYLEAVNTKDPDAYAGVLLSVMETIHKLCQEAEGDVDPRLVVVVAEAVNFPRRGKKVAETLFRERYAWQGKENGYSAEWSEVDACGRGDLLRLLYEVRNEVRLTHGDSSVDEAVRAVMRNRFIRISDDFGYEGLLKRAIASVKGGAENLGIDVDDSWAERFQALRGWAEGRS
As to the kind of experiment: SPR (Biacore 8K, CM5 chip, amine-coupled Csm6-2). In kind it is binding.

The target of test [1] is Csm6-2 L473E/L474E mutant (Actinomyces procaprae). As to the kind of experiment: SEC; size-exclusion chromatography profiles of WT and L473E/L474E mutant proteins. A general note: SEC sorts molecules by how far they enter the pores of the column.

Consider `Nc1ncnc2c1ncn2[C@@H]1O[C@@H]2COP(=O)(O)O[C@H]3[C@@H](O)[C@H](n4cnc5c(N)ncnc54)O[C@@H]3COP(=O)(O)O[C@H]3[C@@H](O)[C@H](n4cnc5c(N)ncnc54)O[C@@H]3COP(=O)(O)O[C@H]3[C@@H](O)[C@H](n4cnc5c(N)ncnc54)O[C@@H]3COP(=O)(O)O[C@H]3[C@@H](O)[C@H](n4cnc5c(N)ncnc54)O[C@@H]3COP(=O)(O)O[C@H]2[C@H]1O` [cA5], for which the Kd at Csm6-2 (ApCsm6-2) (PBST (0.5% Tween-20) running buffer, allosteric activator, CARF domain pocket) amounted to 1.41 nM.

`Nc1ncnc2c1ncn2[C@@H]1O[C@@H]2COP(=O)(O)O[C@H]3[C@@H](O)[C@H](n4cnc5c(N)ncnc54)O[C@@H]3COP(=O)(O)O[C@H]3[C@@H](O)[C@H](n4cnc5c(N)ncnc54)O[C@@H]3COP(=O)(O)O[C@H]3[C@@H](O)[C@H](n4cnc5c(N)ncnc54)O[C@@H]3COP(=O)(O)O[C@H]3[C@@H](O)[C@H](n4cnc5c(N)ncnc54)O[C@@H]3COP(=O)(O)O[C@H]3[C@@H](O)[C@H](n4cnc5c(N)ncnc54)O[C@@H]3COP(=O)(O)O[C@H]2[C@H]1O` [cA6] showed a Kd at Csm6-2 (ApCsm6-2) of 3.72 nM.

In test [1], Csm6-2 L473E/L474E mutant (enzyme) showed a stoichiometry N of 2.
